From ChEMBL document CHEMBL1201861, “Genomics of Drug Sensitity in Cancer screening data, Wellcome Trust Sanger Institute”

Columns and labels:
Experiment in all cases: cells
COLO-829 = format: functional, cell-based, Homo sapiens; conditions: Homo sapiens, COLO-829
Description: SANGER: Inhibition of human COLO-829 cell growth in a cell viability assay.

CP66-MEL = format: functional, cell-based, Homo sapiens; conditions: Homo sapiens, CP66-MEL
Description: SANGER: Inhibition of human CP66-MEL cell growth in a cell viability assay.

D-502MG = format: functional, cell-based, Homo sapiens; conditions: Homo sapiens, D-502MG
Description: SANGER: Inhibition of human D-502MG cell growth in a cell viability assay.

DOHH-2 = format: functional, cell-based, Homo sapiens; conditions: Homo sapiens, DOHH-2
Description: SANGER: Inhibition of human DOHH-2 cell growth in a cell viability assay.

EM-2 = format: functional, cell-based, Homo sapiens; conditions: Homo sapiens, EM-2
Description: SANGER: Inhibition of human EM-2 cell growth in a cell viability assay.

ES1 = format: functional, cell-based, Homo sapiens; conditions: Homo sapiens, ES1
Description: SANGER: Inhibition of human ES1 cell growth in a cell viability assay.

ES7 = format: functional, cell-based, Homo sapiens; conditions: Homo sapiens, ES7
Description: SANGER: Inhibition of human ES7 cell growth in a cell viability assay.

ES8 = format: functional, cell-based, Homo sapiens; conditions: Homo sapiens, ES8
Description: SANGER: Inhibition of human ES8 cell growth in a cell viability assay.

ETK-1 = format: functional, cell-based, Homo sapiens; conditions: Homo sapiens, ETK-1
Description: SANGER: Inhibition of human ETK-1 cell growth in a cell viability assay.

EW-13 = format: functional, cell-based, Homo sapiens; conditions: Homo sapiens, EW-13
Description: SANGER: Inhibition of human EW-13 cell growth in a cell viability assay.

EW-16 = format: functional, cell-based, Homo sapiens; conditions: Homo sapiens, EW-16
Description: SANGER: Inhibition of human EW-16 cell growth in a cell viability assay.

EW-3 = format: functional, cell-based, Homo sapiens; conditions: Homo sapiens, EW-3
Description: SANGER: Inhibition of human EW-3 cell growth in a cell viability assay.

GI-ME-N = format: functional, cell-based, Homo sapiens; conditions: Homo sapiens, GI-ME-N
Description: SANGER: Inhibition of human GI-ME-N cell growth in a cell viability assay.

GOTO = format: functional, cell-based, Homo sapiens; conditions: Homo sapiens, GOTO
Description: SANGER: Inhibition of human GOTO cell growth in a cell viability assay.

GR-ST = format: functional, cell-based, Homo sapiens; conditions: Homo sapiens, GR-ST
Description: SANGER: Inhibition of human GR-ST cell growth in a cell viability assay.

HCC1187 = format: functional, cell-based, Homo sapiens; conditions: Homo sapiens, HCC1187
Description: SANGER: Inhibition of human HCC1187 cell growth in a cell viability assay.

HCE-4 = format: functional, cell-based, Homo sapiens; conditions: Homo sapiens, HCE-4
Description: SANGER: Inhibition of human HCE-4 cell growth in a cell viability assay.

HH = format: functional, cell-based, Homo sapiens; conditions: Homo sapiens, HH
Description: SANGER: Inhibition of human HH cell growth in a cell viability assay.

HL-60 = format: functional, cell-based, Homo sapiens; conditions: Homo sapiens, HL-60
Description: SANGER: Inhibition of human HL-60 cell growth in a cell viability assay.

HT-144 = format: functional, cell-based, Homo sapiens; conditions: Homo sapiens, HT-144
Description: SANGER: Inhibition of human HT-144 cell growth in a cell viability assay.

IA-LM = format: functional, cell-based, Homo sapiens; conditions: Homo sapiens, IA-LM
Description: SANGER: Inhibition of human IA-LM cell growth in a cell viability assay.

IST-SL1 = format: functional, cell-based, Homo sapiens; conditions: Homo sapiens, IST-SL1
Description: SANGER: Inhibition of human IST-SL1 cell growth in a cell viability assay.

JVM-3 = format: functional, cell-based, Homo sapiens; conditions: Homo sapiens, JVM-3
Description: SANGER: Inhibition of human JVM-3 cell growth in a cell viability assay.

K5 = format: functional, cell-based, Homo sapiens; conditions: Homo sapiens, K5
Description: SANGER: Inhibition of human K5 cell growth in a cell viability assay.

KGN = format: functional, cell-based, Homo sapiens; conditions: Homo sapiens, KGN
Description: SANGER: Inhibition of human KGN cell growth in a cell viability assay.

KM-H2 = format: functional, cell-based, Homo sapiens; conditions: Homo sapiens, KM-H2
Description: SANGER: Inhibition of human KM-H2 cell growth in a cell viability assay.

LB1047-RCC = format: functional, cell-based, Homo sapiens; conditions: Homo sapiens, LB1047-RCC
Description: SANGER: Inhibition of human LB1047-RCC cell growth in a cell viability assay.

LB2241-RCC = format: functional, cell-based, Homo sapiens; conditions: Homo sapiens, LB2241-RCC
Description: SANGER: Inhibition of human LB2241-RCC cell growth in a cell viability assay.

ML-2 = format: functional, cell-based, Homo sapiens; conditions: Homo sapiens, ML-2
Description: SANGER: Inhibition of human ML-2 cell growth in a cell viability assay.

NB6 = format: functional, cell-based, Homo sapiens; conditions: Homo sapiens, NB6
Description: SANGER: Inhibition of human NB6 cell growth in a cell viability assay.

NCI-H1092 = format: functional, cell-based, Homo sapiens; conditions: Homo sapiens, NCI-H1092
Description: SANGER: Inhibition of human NCI-H1092 cell growth in a cell viability assay.

NCI-H1648 = format: functional, cell-based, Homo sapiens; conditions: Homo sapiens, NCI-H1648
Description: SANGER: Inhibition of human NCI-H1648 cell growth in a cell viability assay.

NCI-H1650 = format: functional, cell-based, Homo sapiens; conditions: Homo sapiens, NCI-H1650
Description: SANGER: Inhibition of human NCI-H1650 cell growth in a cell viability assay.

NCI-H209 = format: functional, cell-based, Homo sapiens; conditions: Homo sapiens, NCI-H209
Description: SANGER: Inhibition of human NCI-H209 cell growth in a cell viability assay.

NCI-H510A = format: functional, cell-based, Homo sapiens; conditions: Homo sapiens, NCI-H510A
Description: SANGER: Inhibition of human NCI-H510A cell growth in a cell viability assay.

NCI-H82 = format: functional, cell-based, Homo sapiens; conditions: Homo sapiens, NCI-H82
Description: SANGER: Inhibition of human NCI-H82 cell growth in a cell viability assay.

NMC-G1 = format: functional, cell-based, Homo sapiens; conditions: Homo sapiens, NMC-G1
Description: SANGER: Inhibition of human NMC-G1 cell growth in a cell viability assay.

RKO = format: functional, cell-based, Homo sapiens; conditions: Homo sapiens, RKO
Description: SANGER: Inhibition of human RKO cell growth in a cell viability assay.

SF-126 = format: functional, cell-based, Homo sapiens; conditions: Homo sapiens, SF-126
Description: SANGER: Inhibition of human SF126 cell growth in a cell viability assay.

SHP77 = format: functional, cell-based, Homo sapiens, SHP-77; conditions: Homo sapiens, SHP77
Description: SANGER: Inhibition of human SHP-77 cell growth in a cell viability assay.

SK-N-DZ = format: functional, cell-based, Homo sapiens; conditions: Homo sapiens, SK-N-DZ
Description: SANGER: Inhibition of human SK-N-DZ cell growth in a cell viability assay.

SW 962 = format: functional, cell-based, Homo sapiens; conditions: Homo sapiens, SW 962
Description: SANGER: Inhibition of human SW962 cell growth in a cell viability assay.

A388 = format: functional, cell-based, Homo sapiens; conditions: Homo sapiens, A388
Description: SANGER: Inhibition of human A388 cell growth in a cell viability assay.

A4-Fuk = format: functional, cell-based, Homo sapiens; conditions: Homo sapiens, A4-Fuk
Description: SANGER: Inhibition of human A4-Fuk cell growth in a cell viability assay.

A498 = format: functional, cell-based, Homo sapiens; conditions: Homo sapiens, A498
Description: SANGER: Inhibition of human A498 cell growth in a cell viability assay.

ALL-PO = format: functional, cell-based, Homo sapiens; conditions: Homo sapiens, ALL-PO
Description: SANGER: Inhibition of human ALL-PO cell growth in a cell viability assay.

AM-38 = format: functional, cell-based, Homo sapiens; conditions: Homo sapiens, AM-38
Description: SANGER: Inhibition of human AM-38 cell growth in a cell viability assay.

Becker = format: functional, cell-based, Homo sapiens; conditions: Homo sapiens, Becker
Description: SANGER: Inhibition of human Becker cell growth in a cell viability assay.

TE-9 = format: functional, cell-based, Homo sapiens; conditions: Homo sapiens, TE-9
Description: SANGER: Inhibition of human TE-9 cell growth in a cell viability assay.

TGW = format: functional, cell-based, Homo sapiens; conditions: Homo sapiens, TGW
Description: SANGER: Inhibition of human TGW cell growth in a cell viability assay.

## CC(=O)O[C@H]1C(=O)[C@@]2(C)[C@H]([C@H](OC(=O)c3ccccc3)[C@]3(O)C[C@H](OC(=O)[C@H](O)[C@@H](NC(=O)c4ccccc4)c4ccccc4)C(C)=C1C3(C)C)[C@]1(OC(C)=O)CO[C@@H]1C[C@@H]2O [PACLITAXEL]
COLO-829
  IC50: > 102 nM
CP66-MEL
  IC50: > 102 nM
D-502MG
  IC50: > 102 nM
DOHH-2
  IC50: 12 nM
EM-2
  IC50: > 102 nM
ES1
  IC50: 12.9 nM
ES7
  IC50: > 102 nM
ES8
  IC50: 5.38 nM
ETK-1
  IC50: 1.52 nM
EW-13
  IC50: > 102 nM
EW-16
  IC50: 6.94 nM
EW-3
  IC50: > 102 nM
GI-ME-N
  IC50: 84.5 nM
GOTO
  IC50: > 102 nM
GR-ST
  IC50: 56.2 nM
HCC1187
  IC50: 19.2 nM
HCE-4
  IC50: 7.67 nM
HH
  IC50: 71.6 nM
HL-60
  IC50: 9.66 nM
HT-144
  IC50: 8 nM
IA-LM
  IC50: 2.8 nM
IST-SL1
  IC50: 30.4 nM
JVM-3
  IC50: > 102 nM
K5
  IC50: 72.3 nM
KGN
  IC50: 7.12 nM
KM-H2
  IC50: 33.1 nM
LB1047-RCC
  IC50: 25.1 nM
LB2241-RCC
  IC50: > 102 nM
ML-2
  IC50: 20.5 nM
NB6
  IC50: > 102 nM
NCI-H1092
  IC50: > 102 nM
NCI-H1648
  IC50: 4.69 nM
NCI-H1650
  IC50: > 102 nM
NCI-H209
  IC50: 97.9 nM
NCI-H510A
  IC50: 6.65 nM
NCI-H82
  IC50: 43.1 nM
NMC-G1
  IC50: 34.5 nM
RKO
  IC50: 2.98 nM
SF-126
  IC50: 61.3 nM
SHP77
  IC50: > 102 nM
SK-N-DZ
  IC50: 73.1 nM
SW 962
  IC50: 6.62 nM
A388
  IC50: 8.74 nM
A4-Fuk
  IC50: 6.11 nM
A498
  IC50: > 102 nM
ALL-PO
  IC50: 6.3 nM
AM-38
  IC50: > 102 nM
Becker
  IC50: 7.2 nM
TE-9
  IC50: 3.26 nM
TGW
  IC50: 86.1 nM
